{"source": "patent US20250161340A1", "about": "“COMPOSITION FOR PREVENTING, ALLEVIATING OR TREATING DRY EYE SYNDROME OR MEIBOMIAN GLAND DYSFUNCTION” (SEOUL NATIONAL UNIVERSITY HOSPITAL, priority 2022, published 2025)", "key": {"SCD3": {"system": "SCD3", "experiment": "SCD3 transcription in eyelids by real-time RT PCR", "assay_type": "in vivo, mouse", "conditions": "12-week-old NOD.B10.H2^b mice; 5 μL of 1,5DQ (50 μg/μL) twice a day for 5 days; vs PBS", "procedure": "(§1) 12-week-old NOD.B10.H2^b mice were divided into two groups, and (i) 5 μL of 1,5DQ (50 μg/μL) or (ii) 5 μL of PBS was instilled into both eyes of each mouse twice a day for 5 days. After removing the lower and upper eyelids of each mouse model, the expression level of meibomian gland differentiation factors in the eyelids was determined using real-time RT PCR. The meibomian glands are composed of sebocytes, and the transcription levels of stearoyl-CoA desaturase (SCD) 1 and SCD3, which are sebocyte-specific genes, were measured."}, "interleukin 1β (IL-1β)": {"system": "interleukin 1β (IL-1β)", "experiment": "IL-1β transcripts in lacrimal glands by real-time RT PCR, desiccating stress model", "assay_type": "in vivo, mouse", "conditions": "BALB/c mice, 5 μL of 1,5DQ (50 μg/μL) twice a day for 5 days, vs PBS", "procedure": "Desiccating stress-induced 8-week-old BALB/c mice were divided into two groups, and (i) 5 μL of 1,5DQ (50 μg/μL) or (ii) 5 μL of PBS was instilled into both eyes of each mouse twice a day for 5 days. The lacrimal glands of a mouse were classified into an extraorbital lacrimal gland and an intraorbital lacrimal gland, and the degree of inflammatory activation in each lacrimal gland was evaluated by measuring the levels of transcripts of inflammatory cytokine interleukin 1β (IL-1β) using real-time RT PCR."}, "[1]": {"system": "Sjögren's syndrome-related inflammatory dry eye syndrome mouse models (NOD.B10.H2^b mice)", "experiment": "Sjögren's syndrome-related inflammatory dry eye syndrome mouse model: corneal epithelial defects and tear secretion", "assay_type": "in vivo", "conditions": "for corneal epithelial defects: vs PBS or 5 μg/μL", "procedure": "Two types of dry eye syndrome mouse models were used to examine whether 1,5DQ instillation is effective for dry eye syndrome. The first mouse model is a desiccating stress model, and BALB/c mice were reared in a dry environment (humidity: 20 to 30%) while administering a drug that suppresses tear secretion (scopolamine hydrobromide 0.5 mg/0.2 mL) intraperitoneally three times a day. The second mouse model is a Sjögren's syndrome-related inflammatory dry eye syndrome mouse model, and NOD.B10.H2^b mice were used. In the NOD.B10.H2^b mice, under normal environments, inflammation in the lacrimal glands and on the ocular surface spontaneously increases at about 11 weeks, leading to destruction of the lacrimal glands and ocular surface, decreased tear secretion, and severe dry eye syndrome accompanied by ocular surface epithelial defects progresses between 11 and 14 weeks.\n(§2) In each of the two types of dry eye syndrome mouse models, the dry eye treatment effect of 1,5DQ instillation was investigated. The degree of corneal epithelial defects was measured by instilling a drop of the Lissamine green vital dye on the cornea and then observing the degree of stained corneal epithelial defects under a microscope and clinical scoring the same. The amount of tear secretion was evaluated by placing a thread soaked with a phenol red dye on the outer canthus of the mouse for 1 minute and measuring the length moistened by tears (length of the dyed area).\nAs described above, as Sjögren's syndrome-related inflammatory dry eye syndrome mice, NOD.B10.H2^b mice were used. 12-week-old mice were divided into two groups, and (i) 5 μL of 1,5DQ (50 μg/μL) or (ii) 5 μL of PBS was instilled into both eyes of each mouse twice a day for 5 days, and then the degree of corneal epithelial defects and the amount of tear secretion were evaluated.\nAccordingly, the dry eye syndrome treatment effect according to the 1,5DQ treatment concentration was investigated. 12-week-old NOD.B10.H2^b mice (Sjögren's syndrome-related inflammatory dry eye syndrome mouse models) were divided into four groups, and (i) 5 μL of PBS, (ii) 5 μL of 1,5DQ (5 μg/μL), (iii) 5 μL of 1,5DQ (50 μg/μL), or (iv) 5 μL of 1,5DQ (500 μg/μL) was instilled into both eyes twice a day for 5 days, and then the degree of corneal epithelial defects and the amount of tear secretion were evaluated."}, "[2]": {"system": "human corneal epithelial cells", "experiment": "MTT cell viability of corneal epithelial cells, normal or hyperosmotic environment", "assay_type": "cell-based", "conditions": "24 hours", "procedure": "(§3) Corneal epithelial cells primarily cultured from human corneal limbal cells were treated with 100 mM NaCl for exposure to a hyperosmotic environment, and treated with 0, 10, 25, 50, or 100 μg/mL of 1,5DQ for 24 hours, and then cell viability was evaluated through MTT assay."}, "[3]": {"system": "tumor necrosis factor-α (TNF-α)", "experiment": "TNF-α transcripts in eyelids (meibomian glands) by real-time RT PCR, Sjögren's syndrome-related model", "assay_type": "in vivo, mouse", "conditions": "12-week-old NOD.B10.H2^b mice; 5 μL of 1,5DQ (50 μg/μL) twice a day for 5 days; vs PBS", "procedure": "(§4) 12-week-old NOD.B10.H2^b mice were divided into two groups, and (i) 5 μL of 1,5DQ (50 μg/μL) or (ii) 5 μL of PBS was instilled into both eyes of each mouse twice a day for 5 days. The degree of inflammation activation in the eyelids was evaluated by measuring the levels of transcripts of the inflammatory cytokines IL-6 and tumor necrosis factor-α (TNF-α), and another inflammatory factor, matrix metallopeptidase 9 (MMP-9), using real-time RT PCR."}, "meibomian glands": {"system": "meibomian glands", "experiment": "Area of eyelid meibomian glands, Sjögren's syndrome-related model", "assay_type": "in vivo, mouse", "conditions": "12-week-old NOD.B10.H2^b mice; 5 μL of 1,5DQ (50 μg/μL) twice a day for 5 days; vs PBS", "procedure": "12-week-old NOD.B10.H2^b mice were divided into two groups, and (i) 5 μL of 1,5DQ (50 μg/μL) or (ii) 5 μL of PBS was instilled into both eyes of each mouse twice a day for 5 days. The area of the meibomian glands was confirmed by removing an eyelid from the mouse model and then measuring the area of 3 mm at the center."}, "[4]": {"system": "CD3-positive immune cells", "experiment": "CD3 immunostaining of lacrimal glands, Sjögren's syndrome-related model", "assay_type": "in vivo, mouse", "conditions": "12-week-old NOD.B10.H2^b mice; 5 μL of 1,5DQ (50 μg/μL) twice a day for 5 days; vs PBS", "procedure": "Sjögren's syndrome-related inflammatory dry eye syndrome mice, i.e., NOD.B10.H2^b mice, typically show increased infiltration of inflammatory cells into the lacrimal glands between 11 to 14 weeks old. 12-week-old NOD.B10.H2^b mice were divided into two groups, and (i) 5 μL of 1,5DQ (50 μg/μL) or (ii) 5 μL of PBS was instilled into both eyes of each mouse twice a day for 5 days, and then the level of inflammatory cell infiltration in the lacrimal glands was evaluated. In addition, the extraorbital and intraorbital lacrimal glands, which had been removed from each mouse and sectioned, were immunostained with CD3, T cells were observed using the stained CD3 under a microscope (FIGS. 4A and 4B) and counted, and then the level of immune cell infiltration in the lacrimal glands was quantified (FIG. 4C)."}, "[5]": {"system": "human corneal epithelial cells", "experiment": "Apoptosis of corneal epithelial cells by annexin V/PI flow cytometry, hyperosmotic environment", "assay_type": "cell-based", "conditions": "hyperosmotic environment (100 mM NaCl), 24 hours", "procedure": "as §3, with “the degree of apoptosis” for “then cell viability”, “measured by performing flow cytometry after annexin V (ANX) and propidium iodide (PI) staining.” for “evaluated through MTT assay.”"}, "IL-6": {"system": "IL-6", "experiment": "IL-6 transcripts in eyelids (meibomian glands) by real-time RT PCR, Sjögren's syndrome-related model", "assay_type": "in vivo, mouse", "conditions": "12-week-old NOD.B10.H2^b mice; 5 μL of 1,5DQ (50 μg/μL) twice a day for 5 days; vs PBS", "procedure": "as §4"}, "[6]": {"system": "dry eye syndrome mouse models undergoing desiccating stress (BALB/c mice)", "experiment": "Desiccating stress dry eye syndrome mouse model: corneal epithelial defects (Lissamine green) and tear secretion (phenol red thread)", "assay_type": "in vivo", "conditions": "8-week-old BALB/c mice, vs PBS", "procedure": "Two types of dry eye syndrome mouse models were used to examine whether 1,5DQ instillation is effective for dry eye syndrome. The first mouse model is a desiccating stress model, and BALB/c mice were reared in a dry environment (humidity: 20 to 30%) while administering a drug that suppresses tear secretion (scopolamine hydrobromide 0.5 mg/0.2 mL) intraperitoneally three times a day. The second mouse model is a Sjögren's syndrome-related inflammatory dry eye syndrome mouse model, and NOD.B10.H2^b mice were used. […]\nas §2\n8-week-old BALB/c mice undergoing desiccating stress were divided into two groups, and (i) 5 μL of 1,5DQ (50 μg/μL) or (ii) 5 μL of PBS was instilled into both eyes of each mouse twice a day for 5 days, and then the degree of corneal epithelial defects and the amount of tear secretion were evaluated."}, "[7]": {"system": "stearoyl-CoA desaturase (SCD) 1", "experiment": "SCD1 transcription in eyelids by real-time RT PCR", "assay_type": "in vivo, mouse", "conditions": "12-week-old NOD.B10.H2^b mice; 5 μL of 1,5DQ (50 μg/μL) twice a day for 5 days; vs PBS", "procedure": "as §1"}, "[8]": {"system": "matrix metallopeptidase 9 (MMP-9)", "experiment": "MMP-9 transcripts in eyelids (meibomian glands) by real-time RT PCR, Sjögren's syndrome-related model", "assay_type": "in vivo, mouse", "conditions": "12-week-old NOD.B10.H2^b mice; 5 μL of 1,5DQ (50 μg/μL) twice a day for 5 days; vs PBS", "procedure": "as §4"}, "[9]": {"conditions": "12-week-old NOD.B10.H2^b mice, 5 μL of 1,5DQ (50 μg/μL) instilled twice a day for 5 days, vs PBS (Example 1-2)"}}}
{"substance": "1,5-O-dicaffeoylquinic acid [1,5DQ]", "values": [{"measurement": "expression of SCD3 in the eyelids", "setting": "SCD3", "result": "significantly increased"}, {"measurement": "interleukin 1β expression, extraorbital lacrimal gland", "setting": "interleukin 1β (IL-1β)", "result": "significant reduced"}, {"measurement": "interleukin 1β expression, intraorbital lacrimal gland", "setting": "interleukin 1β (IL-1β)", "result": "significant reduced"}, {"measurement": "amount of tear secretion", "setting": "[1]; [9]", "result": "significantly increased"}, {"measurement": "degree of corneal epithelial defects", "setting": "[1]; [9]", "result": "significantly reduced"}, {"measurement": "amount of tear secretion, dependence on concentration", "setting": "[1]; Example 4, NOD.B10.H2^b mice, 5, 50 or 500 μg/μL 1,5DQ, 5 μL twice a day for 5 days", "result": "increasing trend depending on concentration"}, {"measurement": "corneal epithelial defects", "setting": "[1]; Example 4, NOD.B10.H2^b mice, 5 μL of 1,5DQ 50 μg/μL twice a day for 5 days", "result": "significantly reduced"}, {"measurement": "corneal epithelial defects", "setting": "[1]; Example 4, NOD.B10.H2^b mice, 5 μL of 1,5DQ 500 μg/μL twice a day for 5 days", "result": "significantly reduced"}, {"measurement": "amount of tear secretion, difference between the groups", "setting": "[1]; Example 4, NOD.B10.H2^b mice, PBS, 5, 50 or 500 μg/μL 1,5DQ, 5 μL twice a day for 5 days", "result": "no statistically significant difference"}, {"measurement": "cell viability (MTT)", "setting": "[2]; hyperosmotic environment (100 mM NaCl), 10 μg/mL 1,5DQ", "result": "significantly increased"}, {"measurement": "cell viability (MTT)", "setting": "[2]; hyperosmotic environment (100 mM NaCl), 25 μg/mL 1,5DQ", "result": "significantly increased"}, {"measurement": "cell viability (MTT)", "setting": "[2]; hyperosmotic environment (100 mM NaCl), 50 μg/mL 1,5DQ", "result": "significantly increased"}, {"measurement": "cell viability (MTT)", "setting": "[2]; hyperosmotic environment (100 mM NaCl), 100 μg/mL 1,5DQ", "result": "significantly increased"}, {"measurement": "cell viability (MTT)", "setting": "[2]; normal corneal epithelial cells not treated with NaCl, 25 μg/mL 1,5DQ", "result": "significantly increased"}, {"measurement": "cell viability (MTT)", "setting": "[2]; normal corneal epithelial cells not treated with NaCl, 50 μg/mL 1,5DQ", "result": "significantly increased"}, {"measurement": "TNF-α expression in the meibomian glands of the eyelids", "setting": "[3]", "result": "significantly reduced"}, {"measurement": "area of the meibomian glands in the lower eyelid", "setting": "meibomian glands", "result": "significantly increased"}, {"measurement": "number of CD3-positive immune cells deposited in the lacrimal glands", "setting": "[4]", "result": "significantly decreased"}, {"measurement": "apoptosis level of the corneal epithelial cells", "setting": "[5]; 10 μg/mL 1,5DQ", "result": "significantly reduced"}, {"measurement": "apoptosis level of the corneal epithelial cells", "setting": "[5]; 25 μg/mL 1,5DQ", "result": "significantly reduced"}, {"measurement": "apoptosis level of the corneal epithelial cells", "setting": "[5]; 50 μg/mL 1,5DQ", "result": "significantly reduced"}, {"measurement": "IL-6 expression in the meibomian glands of the eyelids", "setting": "IL-6", "result": "significantly reduced"}, {"measurement": "degree of corneal epithelial defects", "setting": "[6]; 5 μL of 1,5DQ (50 μg/μL) instilled in both eyes twice a day for 5 days", "result": "significantly reduced"}, {"measurement": "amount of tear secretion", "setting": "[6]; 5 μL of 1,5DQ (50 μg/μL) instilled twice a day for 5 days", "result": "significantly increased"}, {"measurement": "expression of SCD1 in the eyelids", "setting": "[7]", "result": "significantly increased"}, {"measurement": "MMP-9 expression in the meibomian glands of the eyelids", "setting": "[8]", "result": "significantly reduced"}]}
